The values below come from patent US11931325B2, “Hair-growth promoting composition and usage thereof” (Eaderm Co., Ltd., priority 2015, dated 2024).

The test system of assay [1] is ob/ob mouse. Put plainly: Hair growth experiment using an iNOS inhibitor in shaved/depilated ob/ob mice. In kind it is in vivo. The following applies: for time until deposition of melanin pigments in the skin was observed: hair removed at 8 weeks of age, intraperitoneal in saline (10, 20 and 30 mg/kg for 1400W, L-NIL, BYK191023), time from start of administration; for area of hair growth compared to 1400W: 4 weeks. The procedure:
For this experiment, the ob/ob mouse purchased from Sankyo Labo Service Corporation was used. The whole back of the mouse was shaved using an electric shaver under anesthesia (mixed anesthesia of ketamine hydrochloride and xylazine hydrochloride) at 8 weeks of age, and the hair was removed with a commercially available depilatory cream (Epilat hair removal cream from Kracie Holdings, Ltd.). Administration or application of each iNOS inhibitor was carried out on the day the experiment began. The usage and dosage of the iNOS inhibitors used are as described below. Selective iNOS inhibitors, 1400W, L-NIL and BYK191023, were purchased from Tocris Bioscience and dissolved in saline solution, and each of them was administered intraperitoneally at 10 mg/kg, 20 mg/kg and 30 mg/kg. For the control group, saline solution was administered intraperitoneally. Consecutive administration for five days from Monday to Friday was continued for one month. A similarly selective iNOS inhibitor, aminoguanidine, was purchased from Tokyo Chemical Industry Co., Ltd. and dissolved in saline solution to 10% (w/v), and 100 μl was applied to the epilation area. For the control group, saline solution was used. Consecutive application for five days from Monday to Friday was continued for one month. The back was photographed once a week and observation was continued until 12 weeks of age. Every seven days from the start of the administration, the state of hair growth in the shaved area was rated using the hair growth score standard below.
(Hair Growth Score Standard)
1=hair growth in less than 10% of the shaved area
2=hair growth in equal to or more than 10% and less than 20% of the shaved area
3=hair growth in equal to or more than 20% and less than 30% of the shaved area
4=hair growth in equal to or more than 30% and less than 40% of the shaved area
5=hair growth in equal to or more than 40% and less than 50% of the shaved area
6=hair growth in equal to or more than 50% and less than 60% of the shaved area
7=hair growth in equal to or more than 60% and less than 70% of the shaved area
8=hair growth in equal to or more than 70% and less than 80% of the shaved area
9=hair growth in equal to or more than 80% and less than 90% of the shaved area
10=hair growth in equal to or more than 90% of the shaved area

The test system of assay [2] is C3H mouse and C57BL/6 mouse. The experiment in a line: Hair growth experiment using wild-type mice (application of aminoguanidine). It counts as in vivo. The conditions noted are these: C3H and C57BL/6 mice, 10% (w/v) in saline, 100 μl applied to the epilation area, five days a week for three weeks. The protocol:
In this experiment, the same method as Example 2 was used, except that the C3H mouse and C57BL/6 mouse were used. The whole back of the mouse was shaved using an electric shaver under anesthesia (mixed anesthesia of ketamine hydrochloride and xylazine hydrochloride) at 8 weeks of age, and the hair was removed with a commercially available depilatory cream (Epilat hair removal cream from Kracie Holdings, Ltd.). Application of aminoguanidine was carried out on the day the experiment began. The usage and dosage of the aminoguanidine used are as described below. Aminoguanidine was purchased from Tokyo Chemical Industry Co., Ltd. and dissolved to 10% (w/v) in saline solution, and 100 μl was applied to the epilation area. For the control group, saline solution was used. Consecutive application for five days from Monday to Friday was continued for three weeks, and the back was photographed daily.

[3] abbreviates: 10% (w/v) in saline, 100 μl applied to the epilation area, time from start of application.

The structures appear in SMILES notation.

With `N=C(N)NN` [aminoguanidine], in assay [1] (setting [3]), the “time until hair growth was confirmed” value was “two”, the “time until hair returned to almost the same as the original condition” value is “four” and the “time until widespread hair growth was confirmed” value is on record as “three”. The “shortening of the telogen phase compared to the control group” value in assay [2] was “two to three”.

Consider `COc1ccnc(CCc2nc3ncccc3[nH]2)c1` [BYK191023], for which the “time until deposition of melanin pigments in the skin was observed” value in assay [1] (five days a week for one month) is listed as “three”. Moreover, the “area of hair growth compared to 1400W” value in assay [1] (intraperitoneal administration) is “less”.

For `CC(=N)NCc1cccc(CN)c1` [1400W], the “time until widespread hair growth was confirmed” value in assay [1] (intraperitoneal administration, five days a week for one month) is reported as “four”.

With `CC(=N)NCCCC[C@H](N)C(=O)O` [L-NIL], the “time until deposition of melanin pigments in the skin was observed” value in assay [1] (five days a week for one month) was “three”. Besides, the “area of hair growth compared to 1400W” value in assay [1] (intraperitoneal administration) is listed as “less”.
